≈ marks a conversion by molar mass, not a printed value.
Experiments:
[1] = Cytotoxicity MTT assay, human neuroblastoma cell line; conditions: SH-SY5Y neuroblastoma cells
[2] = target: T1, recombinant BChE (hBChE, E.C. 3.1.1.8) (Homo sapiens, UniProt P06276); assay: biochemical; assay type: biochemical; conditions: for IC50: mean ± SEM of three independent measurements, each in triplicate; for inhibition at 10 µM: tested at 10 μM compound concentration, read-out: % inhibition of hBChE ± SEM
T1 construct: purchased Sigma-Aldrich, Prague, Czech Republic
T1 sequence (P06276 29-602): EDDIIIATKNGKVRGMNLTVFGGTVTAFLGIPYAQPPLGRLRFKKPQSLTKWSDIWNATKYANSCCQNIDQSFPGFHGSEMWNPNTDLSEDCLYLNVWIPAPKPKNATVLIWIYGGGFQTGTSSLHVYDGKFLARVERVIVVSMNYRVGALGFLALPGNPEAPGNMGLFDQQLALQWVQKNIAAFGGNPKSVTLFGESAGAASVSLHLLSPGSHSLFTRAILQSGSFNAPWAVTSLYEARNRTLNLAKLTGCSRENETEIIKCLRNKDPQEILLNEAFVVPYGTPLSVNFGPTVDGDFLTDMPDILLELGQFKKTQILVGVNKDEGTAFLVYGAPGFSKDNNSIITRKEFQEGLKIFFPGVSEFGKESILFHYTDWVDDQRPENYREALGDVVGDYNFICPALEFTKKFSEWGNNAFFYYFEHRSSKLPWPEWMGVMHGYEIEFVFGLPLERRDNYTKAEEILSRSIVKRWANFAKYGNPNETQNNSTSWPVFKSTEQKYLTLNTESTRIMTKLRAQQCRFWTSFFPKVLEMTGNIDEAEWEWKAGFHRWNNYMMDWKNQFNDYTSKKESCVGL
Method: The activities of hAChE and hBChE were determined using a modified Ellman's method, as described in ref. [56] and [62] against recombinant AChE (hAChE, E.C. 3.1.1.7) and recombinant BChE (hBChE, E.C. 3.1.1.8), both of which were purchased from Sigma-Aldrich, Prague, Czech Republic. […] The other compounds used, including the phosphate buffer solution (PBS, pH = 7.4), 5,5′-dithio-bis(2-nitrobenzoic) acid (Ellman's reagent, DTNB), acetylthiocholine (ATChI), and butyrylthiocholine (BTChI), were commercially available and purchased from Sigma-Aldrich in Prague, Czech Republic. In brief, the corresponding enzyme (8.3 μL), 5 mM DTNB (283 μL), and the sample dilution in dimethyl sulfoxide (DMSO) at various concentrations (8.3 μL) were added to 96-well microplates (BRAND GMBH + CO KG, Wertheim, Germany) and pre-incubated for 5 minutes in the assay medium. The reaction was initiated by adding 10 mM substrate (ATChI or BTChI, 33.3 μL). […] Each measurement was repeated in triplicate. The percentage of inhibition was calculated using the following formula: [drawing 8] where ΔABl represents the increase in absorbance of the blank sample, and ΔASa represents the increase in absorbance of the measured sample. […] Microsoft Excel (Redmond, WA, USA) and GraphPad Prism version 7 for Windows (GraphPad Software, San Diego, CA, USA) were used for the statistical data evaluation.

HepG2 cells = conditions: human, 24 h
Method: (§1) For passaging, the cells were treated with trypsin/EDTA (Sigma-Aldrich, St. Louis, USA) at 37 °C and then harvested. For cytotoxicity evaluation, the cells treated with the studied substances were used, while untreated HepG2 cells served as the control group. The cells were seeded in a 96-well plate at a density of 5 × 10^4 cells per well and incubated for 24 hours. All tested compounds were dissolved in DMSO to prepare 10 mM stock solutions and subsequently diluted to the desired concentration just before the cell treatment (the highest DMSO concentration used was 0.5% v/v). Positive and negative controls were included, as well, and the activity of all the samples was determined in triplicate. Plates were incubated for 24 h in a humidified atmosphere containing 5% CO2 at 37 °C. […] Afterwards, the formazan crystals were dissolved in DMSO, and the absorbance of samples was recorded at 570 nm (BioTek, Synergy Neo2 Multi-Mode Reader NEO2SMALPHAB; BioTek, Winooski, VT, USA). IC50 values were calculated by nonlinear regression from a semi-logarithmic plot of incubation concentration versus percentage of absorbance relative to untreated controls using GraphPad Prism software (version 9; GraphPad Software, Inc., La Jolla, CA, USA).

in vitro = conditions: human, HepG2 hepatocellular carcinoma cells
Method: as §1

[3] = PAMPA assay (BBB penetration); conditions: for Pe ± SEM: PAMPA, PBS pH 7.4, n = 3; for BBB penetration estimation CNS (+/−): class from PAMPA Pe
Description: Furthermore, we experimentally determined the ability of 12 highlighted hBChE inhibitors to pass through the BBB using a parallel artificial membrane permeation assay (PAMPA) as described by Di et al.[65] […] The methodology was validated on a set of compounds (positive and negative controls) recognized for their activity in the CNS (Table 3).
In this study, it has been used as a non-cell-based in vitro assay carried out in a coated 96-well membrane filter. The filter membrane of the donor plate was coated with PBL (polar brain lipid, Avanti, USA) in dodecane (4 μl of 20 mg ml^−1 PBL in dodecane) and the acceptor well was filled with 300 μl of PBS (pH 7.4; VA). The tested compounds were dissolved first in DMSO and subsequently diluted with PBS (pH 7.4) to final concentrations of 50–100 μM in the donor wells. […] About 300 μL of the donor solution was added to the donor wells (VD) and the donor filter plate was carefully put on the acceptor plate so that the coated membrane was “in touch” with both the donor solution and acceptor buffer. In principle, the test compound diffused from the donor well through the lipid membrane (area = 0.28 cm^2) to the acceptor well. The concentration of the drug in both the donor and acceptor wells was assessed after 3, 4, 5, and 6 h of incubation in quadruplicate using the UV plate reader Spark (Tecan Group Ltd, Switzerland) at the maximum absorption wavelength of each compound. Besides that, a solution of theoretical compound concentration, simulating the equilibrium state established if the membrane were ideally permeable, was prepared and assessed as well. The concentration of the compounds in the donor and acceptor wells and equilibrium concentration were calculated from the standard curve and expressed as the permeability (Pe) according the equation: [drawing 10] where [drawing 11]

Human plasma stability = assay type: in vitro ADME; conditions: percentage of the remaining compound after 120 min incubation, 1 μM
Method: Compound 33 was incubated with human pooled plasma (Batch S00G71, Biowest, France). Briefly, compounds were dissolved in DMSO to produce stock sample solutions. 10 μL of stock solution was added to 990 μL of human plasma to initiate the reaction. […] The reactions were stopped by transferring 200 μL of incubate to 200 μL of acetonitrile containing the internal standard (IS; 67) at appropriate time points (0, 15, 30, 60 and 120 min) and centrifuged at 12 000 rpm for 5 min at 4 °C to precipitate the protein. After that, […] of supernatant was transferred to the vial and analyzed by LC-MS.
The HPLC system used in this study was Dionex Ultimate 3000 UHPLC RS consisting of an RS pump, RS column compartment, RS autosampler and diode array detector controlled by Chromeleon (version 7.2.9. build 11323) software (Thermo Fisher Scientific, Germering, Germany) connected to a Q Exactive Plus Orbitrap mass spectrometer with Thermo Xcalibur (version 3.1.66.10.) software (Thermo Fisher Scientific, Bremen, Germany). […]
For the determination of plasma stability, the percentage of the remaining compound was calculated from the ratio between peak area ratios (compound peak area/internal standard peak area) obtained at incubation times 0 and 120 min.

[4] = Aqueous solubility determination; assay type: physicochemical; conditions: ultrapure distilled water containing 5% DMSO, 37 °C
Method: Briefly, 200 μl of the aqueous solution of compound 33 at the concentration of 50 μM was analyzed for the UV/vis absorption spectrum using a multimode microplate reader (TECAN Spark®, Tecan Group Ltd., Switzerland) and the wavelength of maximum absorbance was used for further testing of the corresponding compound. Subsequently, six consecutive concentrations were prepared for the compound by serial dilution of 50 μM standard solution and the absorbance of these solutions (200 μl) was measured by a microplate reader. The data were used to calculate the calibration curve by the linear regression method. Finally, the over-saturated solutions of the tested compound were prepared and incubated in an ultrasound water bath at 37 °C for 10 min. Then the solutions were centrifuged at 8000 RPM for 10 min and the UV/vis absorption of the supernatant was measured by a microplate reader. The obtained absorption value was used to calculate the maximum water solubility of the tested compound. In case the absorption value of the supernatant was higher than the calibration curve range, the supernatant was diluted with a 5% DMSO/water solution to match the calibration curve.

[5] = Human liver microsomal (HLM) stability; assay type: in vitro ADME; conditions: pooled human liver microsomes
Method: Briefly, compounds were dissolved in DMSO to produce stock sample solutions. […] Subsequently, 400 μL of supernatant was transferred to the vial and analyzed by LC-MS. Three types of blank samples were prepared in the same way, with a one-step exception. In the biological blank sample, 5 μL of DMSO was added instead of 5 μL stock solution, in the chemical blanks, 50 μL of water was added instead of HLM, and in the case of the control blank sample, 25 μL of water was added instead of 25 μL of RapidStart System.
A Reverse-phase C18 column Kinetex EVO (Phenomenex, Torrance, CA, USA) was used as a stationary phase, and purified water with 0.1% formic acid (mobile phase A) and LC-MS grade acetonitrile with 0.1% formic acid (mobile phase B) were used as the mobile phases. […] The column temperature was kept constant at 27 °C, the flow of the mobile phase was 0.5 mL min^−1, and the injection volume was 1 μL. […]
The peak areas of the compounds (Acmp) and internal standards (AIS) were detected in positive mode in extracted ion chromatograms from the mass spectrometer data. For the determination of microsomal stability, the Acmp/AIS was calculated as logarithmized. […]

hBChE = hBChE (Homo sapiens, UniProt P06276); assay: Enzyme kinetic analysis of hBChE inhibition; assay type: biochemical
Chain of hBChE (P06276 29-602): as above
Method: A kinetic study was performed to estimate the interaction mode of derivative 33 with hBChE. The inhibition kinetics was calculated from rate curves that were determined at several concentrations of the tested compound and substrate. The type of enzyme inhibition and appropriate kinetic parameters (Ki and Ki′) were determined using nonlinear regression analysis. Results for each type of inhibition model (competitive, non-competitive, uncompetitive and mixed) were compared by the sum-of-squares F-test. […].
The kinetic study of hBChE was conducted using the modified Ellman's method mentioned earlier,[62,74,75] with slight variations applied at the collaborating laboratory. Solutions of the corresponding ChE in phosphate buffer (PB) were prepared to achieve a final activity of 0.002 U μL^−1. The solutions of the tested compounds (8.3 μL at varying concentrations) were pre-incubated for 5 minutes in the assay medium. […] The increase in absorbance was measured for 1 minute at 412 nm using the Multimode microplate reader Synergy 2 (BioTek Inc., Winooski, VT, USA). Nunc flat-bottomed polystyrene 96-well microplates (ThermoFisher Scientific, USA) were used for these measurements. To calculate the resulting measured activity (expressed as the percentage of inhibition I), the following formula was applied: [drawing 9] where ΔAi indicates the absorbance change provided by adequate enzyme exposed to the corresponding inhibitor and ΔA0 indicates the absorbance change when a solution of PB was added instead of a solution of the inhibitor. Microsoft Excel (Redmond, WA, USA) and GraphPad Prism version 8.30 for Windows (GraphPad Software, San Diego, CA, USA) were employed for the statistical data analysis. The values of Vmax and Km for the Michaelis–Menten kinetics, as well as the values of Ki (enzyme–inhibitor dissociation constant) and Ki′ (enzyme–substrate–inhibitor dissociation constant), were calculated through nonlinear regression from the substrate velocity curves. Linear regression was used for the calculation of Lineweaver–Burk plots. […]

[6] = test system: recombinant AChE (hAChE, E.C. 3.1.1.7); design: method as in PMID 32455879, PMID 36152726; conditions: template alkaloid, Fig. 1; cited from earlier work

SMILES	IC50 at 24 h [1] [µM]	IC50 [2] [µM]	inhibition at 10 µM [2] [%]	Safety index (HepG2 cells)	IC50 at 24 h (in vitro) [µM]	Pe ± SEM [3]	BBB penetration estimation CNS (+/−) [3]	Plasma stability (Human plasma stability) [%]	solubility at 10 min [4] [µM]	microsomal CLint at 0.75 h, 3 µM ([5]; pH 7.4) [µL/min/mg]	half-life at 0.75 h, 3 µM ([5]; pH 7.4, up to 45 min incubation, read-out: HLM T½) [min]	Ki (hBChE; enzyme–inhibitor dissociation constant, nonlinear regression) [µM]	Ki′ (hBChE; enzyme–substrate–inhibitor dissociation constant, nonlinear regression) [µM]	type of enzyme inhibition (hBChE; sum-of-squares F-test, p < 0.0002, Lineweaver–Burk plot)	IC50 [6] [µM]
C=CCOc1ccc(CCN(CC=C)Cc2ccc(OC)c(OCc3ccccc3)c2)cc1 [Compound 1, reference compound]	> 125	–	–	–	–	–	–	–	–	–	–	–	–	–	–
Oc1ccc(CCNCc2cccc(OCc3ccccc3)c2)cc1 [Compound 4, 4-[2-({[3-(Benzyloxy)phenyl]methyl}amino)ethyl]phenol]	21 ± 2.4	0.193 ± 0.055	96 ± 0.8	310	60 ± 4	14.0 ± 0.4 ×10^−6 cm s^−1	CNS + (CNS (+) (high BBB permeation predicted): Pe (×10^−6 cm s^−1) > 4.0)	–	–	–	–	–	–	–	–
COc1ccccc1CCNCc1cccc(OCc2ccccc2)c1 [Compound 5, {[3-(Benzyloxy)phenyl]methyl}[2-(2-methoxyphenyl)ethyl]amine]	16 ± 2.8	0.4 ± 0.1	94 ± 0.4	130	52 ± 10	6.2 ± 0.7 ×10^−6 cm s^−1	CNS + (CNS (+) (high BBB permeation predicted): Pe (×10^−6 cm s^−1) > 4.0)	–	–	–	–	–	–	–	–
CC(CNCc1cccc(OCc2ccccc2)c1)c1ccccc1 (centres unmarked) [Compound 18, {[3-(Benzyloxy)phenyl]methyl}(2-phenylpropyl)amine]	36 ± 1.4	0.188 ± 0.023	96 ± 0.3	290	55 ± 6.9	8.1 ± 0.6 ×10^−6 cm s^−1	CNS + (CNS (+) (high BBB permeation predicted): Pe (×10^−6 cm s^−1) > 4.0)	–	–	–	–	–	–	–	–
Oc1ccc(CCNCc2ccc(OCc3ccccc3)cc2)cc1 [Compound 28, 4-[2-({[4-(Benzyloxy)phenyl]methyl}amino)ethyl]phenol]	13 ± 1.2	0.171 ± 0.063	97 ± 0.3	500	85 ± 12	10.0 ± 0.5 ×10^−6 cm s^−1	CNS + (CNS (+) (high BBB permeation predicted): Pe (×10^−6 cm s^−1) > 4.0)	–	–	–	–	–	–	–	–
CCCN(CCc1ccc(O)cc1)Cc1ccc(OCc2ccccc2)cc1 [Compound 33, 4-[2-({[4-(Benzyloxy)phenyl]methyl}(propyl)amino)ethyl]phenol]	38 ± 3.5	0.167 ± 0.018	95 ± 1.1	560	93 ± 11	11.0 ± 2.2 ×10^−6 cm s^−1	CNS + (CNS (+) (high BBB permeation predicted): Pe (×10^−6 cm s^−1) > 4.0)	94.5	267 (≈ 100 µg/mL)	161	8.62	0.182 ± 0.028	1.619 ± 0.315	mixed inhibition pattern	–
CN(CCc1ccc(O)cc1)Cc1cc2c(cc1-c1cccc3c1N(C)CC3)OCO2 [carltonine B]	–	–	–	–	–	–	–	–	–	–	–	–	–	–	> 100

Source: article PMC11110763, “Carltonine-derived compounds for targeted butyrylcholinesterase inhibition” (RSC Medicinal Chemistry, 2024)
